Some test systems named below: SARS-CoV-2 M49L variant; SARS-CoV-2 S144A variant; SARS-CoV-2 T169I variant; SARS-CoV-2 E166G variant; SARS-CoV-2 E166H variant; SARS-CoV-2 E166Q variant; SARS-CoV-2 E166S variant; SARS-CoV-2 E166L variant.
Common to all, as to assay type: cell-based
The test system of assay [1] is SARS-CoV-2 ENS-EV1 (M49L and S144A in Mpro).
In assay [2] the test system is SARS-CoV-2 ENS-EV2 (M49L, S144A and T169I in Mpro).
Assay [3] deals with SARS-CoV-2 M49L+S144A variant.
For assay [4], the system named is SARS-CoV-2 M49L+E166A variant.
Assay [5] relates to SARS-CoV-2 M49L+S144A+T169I variant.
Assay [6] has as its system SARS-CoV-2 L50F+E166V variant.
Assay [7] deals with SARS-CoV-2 NIR-EV L50F+E166V.
In assay [8] the test system is SARS-CoV-2 replicon with M49L + S144A + T169I.
Assay [9] concerns SARS-CoV-2 replicon with M49L + E166A.
Assay [10] concerns SARS-CoV-2 replicon with E166A.

With `Cn1cnc(Cn2c(=O)[nH]/c(=N\c3cc4cn(C)nc4cc3Cl)n(Cc3cc(F)c(F)cc3F)c2=O)n1` [ENS, Ensitrelvir], the “Fold resistance, highest in VeroE6 or A549-hACE2 cells” value (“Fold resistance, highest” below) in [1] is recorded as “up to 110 fold”; in assay [2], “up to 280 fold”; in the assay with SARS-CoV-2 M49L variant, “up to 71 fold”; in the assay with SARS-CoV-2 S144A variant, “up to 21 fold”; in [3], “up to 290 fold”; in [4], “up to 180 fold”. In addition, the “Fold resistance, highest” value in the assay with SARS-CoV-2 T169I variant is listed as “up to 4.8 fold”; in [5], “up to 660 fold”; in [6] it was “up to 14 fold”; in assay [7], “up to 36 fold”; in the assay on SARS-CoV-2 E166G variant, below 5 fold; with SARS-CoV-2 E166H variant, above 5 fold. For the same compound, the “Fold resistance, highest” value in the assay with SARS-CoV-2 E166Q variant is below 5 fold; in the assay on SARS-CoV-2 E166S variant it was above 5 fold. The results for the “Resistance of replicon (% RLU in treated cultures)” value in assay [8] and in assay [9] were “highest resistance” and “lower resistance”, respectively.
`CC(C)(C)[C@H](NC(=O)C(F)(F)F)C(=O)N1C[C@H]2[C@@H]([C@H]1C(=O)N[C@H](C#N)C[C@@H]1CCNC1=O)C2(C)C` [NIR, Nirmatrelvir]: the “Fold resistance, highest” value in [1] is below 10 fold; in [2], below 10 fold; in the assay on SARS-CoV-2 E166G variant it was below 5 fold; in the assay with SARS-CoV-2 E166L variant, above 5 fold; in the assay on SARS-CoV-2 E166Q variant, below 5 fold; in the assay on SARS-CoV-2 E166S variant it was above 5 fold. In addition, the “Resistance of replicon (% RLU in treated cultures)” value in assay [9] and in assay [10] was “relatively high resistance” in each case.
